Measured values reported in ChEMBL document CHEMBL1201862, “PubChem BioAssay data set” (2004).
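Five compound concentrations were applied to cells in 96-well plates for 48 hours; endpoints were derived by simple linear interpolation of the resulting dose-response curve. The concentration for 50% growth inhibition is given as GI50.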 Calls of active or inactive are those of the source. Cut-off read from the data, not from the text of the source: active = GI50 up to about 1.1 µM and inactive = higher.

Legend:
Assay in all cases: DTP human tumour cell line panel, 48 h
A549 = system: A549
ACHN = system: ACHN
CAKI-1 = system: CAKI-1
COLO 205 = system: COLO 205
HCT-15 = system: HCT-15
HOP-62 = system: HOP-62
HT-29 = system: HT-29
Hs-578T = system: Hs-578T
KM12 = system: KM12
MDA-MB-435 = system: MDA-MB-435
OVCAR-8 = system: OVCAR-8
SF-295 = system: SF-295
SK-MEL-2 = system: SK-MEL-2
SK-MEL-5 = system: SK-MEL-5
SNB-19 = system: SNB-19
SNB-75 = system: SNB-75
U-251 = system: U-251
K562 = system: K562
MDA-MB-231 = system: MDA-MB-231

SMILES	GI50 (A549)	GI50 (ACHN)	GI50 (CAKI-1)	GI50 (COLO 205)	GI50 (HCT-15) [µM]	GI50 (HOP-62)	GI50 (HT-29)	GI50 (Hs-578T)	GI50 (KM12)	GI50 (MDA-MB-435)	GI50 (OVCAR-8)	GI50 (SF-295)	GI50 (SK-MEL-2)	GI50 (SK-MEL-5)	GI50 (SNB-19)	GI50 (SNB-75)	GI50 (U-251)	GI50 (K562)	GI50 (MDA-MB-231)
O=S1(=O)OCCCOS(=O)(=O)C1(Br)Br	> 100 µM (inactive)	> 100 µM (inactive)	> 100 µM (inactive)	> 100 µM (inactive)	> 100	0.743 µM (active)	> 100 µM (inactive)	62.2 µM (inactive)	> 100 µM (inactive)	> 100 µM (inactive)	> 100 µM (inactive)	> 100 µM (inactive)	> 100 µM (inactive)	> 100 µM (inactive)	> 100 µM (inactive)	> 100 µM (inactive)	> 100 µM (inactive)		
Clc1ccc(-c2ccc(-c3nnc(COc4ccc(OCc5nnc(-c6ccc(-c7ccc(Cl)cc7Cl)o6)o5)c(Cl)c4)o3)o2)c(Cl)c1	> 100 µM (inactive)	> 100 µM (inactive)	> 100 µM (inactive)	> 100 µM (inactive)	> 100	36.6 µM (inactive)	> 100 µM (inactive)	83 µM (inactive)	> 100 µM (inactive)	> 100 µM (inactive)	45.7 µM (inactive)	> 100 µM (inactive)	25.3 µM (inactive)	> 100 µM (inactive)	61.7 µM (inactive)		40 µM (inactive)	> 100 µM (inactive)	> 100 µM (inactive)
Cn1cnc2c(sc3nc4ccccc4n32)c1=N	> 100 µM (inactive)	> 100 µM (inactive)	> 100 µM (inactive)	> 100 µM (inactive)	> 100	> 100 µM (inactive)	> 100 µM (inactive)	42.7 µM (inactive)		> 100 µM (inactive)	41.5 µM (inactive)	68.1 µM (inactive)	> 100 µM (inactive)	> 100 µM (inactive)	> 100 µM (inactive)	11.2 µM (inactive)	> 100 µM (inactive)		> 100 µM (inactive)
COC(=O)c1ccc(Nc2nc3[nH]cnc3c(=O)[nH]2)cc1	> 100 µM (inactive)	> 100 µM (inactive)	> 100 µM (inactive)	> 100 µM (inactive)	> 100	> 100 µM (inactive)	58.7 µM (inactive)	> 100 µM (inactive)	> 100 µM (inactive)	51.9 µM (inactive)	> 100 µM (inactive)	> 100 µM (inactive)	> 100 µM (inactive)	> 100 µM (inactive)	> 100 µM (inactive)	> 100 µM (inactive)	> 100 µM (inactive)		> 100 µM (inactive)
COC(=O)NN=C(c1ccc(Cl)cc1)c1ccc(Cl)cc1	71.1 µM (inactive)		> 100 µM (inactive)	51.2 µM (inactive)	> 100		58.6 µM (inactive)	> 100 µM (inactive)	> 100 µM (inactive)	> 100 µM (inactive)	> 100 µM (inactive)		> 100 µM (inactive)	> 100 µM (inactive)	> 100 µM (inactive)	87.9 µM (inactive)	> 100 µM (inactive)	> 100 µM (inactive)	> 100 µM (inactive)
CN(C)CCN1C(=O)N(CCN(C)C)c2c3cc(O)ccc3nc3c([N+](=O)[O-])ccc1c23	9.12 µM (inactive)	6.22 µM (inactive)	13.1 µM (inactive)	10.4 µM (inactive)	6.52		6.08 µM (inactive)	16.9 µM (inactive)	7.91 µM (inactive)	14.8 µM (inactive)	5.55 µM (inactive)		24.8 µM (inactive)	13.7 µM (inactive)	6.05 µM (inactive)	19.1 µM (inactive)	9.93 µM (inactive)	4.57 µM (inactive)	10.5 µM (inactive)
CC1(O)CC(C(F)(F)F)(C(F)(F)F)OC1=O (centres undefined)	> 10 µM (inactive)	> 10 µM (inactive)	> 10 µM (inactive)	> 10 µM (inactive)	> 10	> 10 µM (inactive)	> 10 µM (inactive)	> 10 µM (inactive)	> 10 µM (inactive)	> 10 µM (inactive)	> 10 µM (inactive)	> 10 µM (inactive)		> 10 µM (inactive)	> 10 µM (inactive)		> 10 µM (inactive)	> 10 µM (inactive)	> 10 µM (inactive)
COc1ccccc1C1(c2c(OC(C)C)c(=O)c2=O)SCCCS1	> 100 µM (inactive)	> 100 µM (inactive)	> 100 µM (inactive)	> 100 µM (inactive)	> 100	> 100 µM (inactive)	> 100 µM (inactive)	> 100 µM (inactive)	> 100 µM (inactive)	> 100 µM (inactive)	> 100 µM (inactive)	> 100 µM (inactive)	> 100 µM (inactive)	> 100 µM (inactive)	> 100 µM (inactive)	90.4 µM (inactive)	> 100 µM (inactive)		> 100 µM (inactive)
O=C1CC(NC(=O)C(F)(F)F)c2c(Br)sc(N3CCC(c4ccccc4)CC3)c21 (centres undefined)	32.8 µM (inactive)	28.1 µM (inactive)	12.9 µM (inactive)	> 100 µM (inactive)	25.1		56.5 µM (inactive)	20 µM (inactive)	> 100 µM (inactive)	> 100 µM (inactive)	24.9 µM (inactive)	4.48 µM (inactive)	0.973 µM (active)	6.03 µM (inactive)	20.8 µM (inactive)	69.3 µM (inactive)	6.76 µM (inactive)	5.27 µM (inactive)	3.73 µM (inactive)
CCc1cc(O)c(Cl)c(C)c1Cl	23.1 µM (inactive)	15.7 µM (inactive)	17.3 µM (inactive)	21.4 µM (inactive)	17.4	18.7 µM (inactive)	19.2 µM (inactive)	17.8 µM (inactive)	15.2 µM (inactive)	16.4 µM (inactive)	18.2 µM (inactive)	20 µM (inactive)	43.3 µM (inactive)	17.5 µM (inactive)	30.3 µM (inactive)	18.9 µM (inactive)	18 µM (inactive)		27 µM (inactive)
O=C(NCCC1CN(S(=O)(=O)C(F)(F)F)c2ccccc21)OCc1ccccc1 (centres undefined)	> 100 µM (inactive)	> 100 µM (inactive)	> 100 µM (inactive)	> 100 µM (inactive)	> 100	> 100 µM (inactive)	> 100 µM (inactive)	76.6 µM (inactive)	83.4 µM (inactive)	> 100 µM (inactive)	> 100 µM (inactive)	> 100 µM (inactive)	> 100 µM (inactive)	> 100 µM (inactive)	> 100 µM (inactive)		83.9 µM (inactive)	66.1 µM (inactive)	> 100 µM (inactive)
c1ccc(C2=NN=C3C(c4ccccc4)=Nc4ccccc4N3C2)cc1	30.6 µM (inactive)	34.4 µM (inactive)	43.7 µM (inactive)	20.5 µM (inactive)	11.6	27 µM (inactive)	23.3 µM (inactive)	26.6 µM (inactive)	29 µM (inactive)	17.7 µM (inactive)	10 µM (inactive)		23.5 µM (inactive)	14.1 µM (inactive)	24.2 µM (inactive)		14.3 µM (inactive)	13.9 µM (inactive)	38.9 µM (inactive)
C=CC1ON(Cc2ccccc2)CCc2cc(OC)c(OC)cc21 (centres undefined)	44.2 µM (inactive)	> 100 µM (inactive)	70.5 µM (inactive)	41.6 µM (inactive)	48.2	85.5 µM (inactive)	42.4 µM (inactive)	> 100 µM (inactive)	27 µM (inactive)	24.5 µM (inactive)	> 100 µM (inactive)	31.7 µM (inactive)		16.1 µM (inactive)	> 100 µM (inactive)	72.4 µM (inactive)	66.5 µM (inactive)	42 µM (inactive)	81.1 µM (inactive)
COc1cc(C2c3cc4c(cc3OC3(OC)COC(=O)C23)OCO4)cc(OC)c1OC(C)=O (centres undefined)	1.54 µM (inactive)	1.32 µM (inactive)		3.87 µM (inactive)	0.798	0.8 µM (active)	2.47 µM (inactive)	0.54 µM (active)	0.881 µM (active)	0.331 µM (active)	2.52 µM (inactive)	0.321 µM (active)	1.84 µM (inactive)	0.726 µM (active)	5.94 µM (inactive)	0.384 µM (active)	2.13 µM (inactive)	1.04 µM (active)	2.9 µM (inactive)
CC(CNC(=O)c1ccccc1)(CNC(=O)c1ccccc1)[N+](=O)[O-]	> 100 µM (inactive)	> 100 µM (inactive)	> 100 µM (inactive)	> 100 µM (inactive)	> 100		> 100 µM (inactive)	> 100 µM (inactive)	> 100 µM (inactive)	> 100 µM (inactive)	> 100 µM (inactive)	> 100 µM (inactive)	> 100 µM (inactive)	> 100 µM (inactive)	7.05 µM (inactive)	51.3 µM (inactive)	> 100 µM (inactive)	> 100 µM (inactive)	> 100 µM (inactive)
CC1=CCC(=O)[C@]2(C)C(CC(=O)O)[C@]3(C)C4=C(C)C(c5ccoc5)C[C@@H]4O[C@@H]3[C@H](O)[C@@H]12 (some centres undefined)	> 100 µM (inactive)	> 100 µM (inactive)	> 100 µM (inactive)	> 100 µM (inactive)	> 100			> 100 µM (inactive)	> 100 µM (inactive)	> 100 µM (inactive)	> 100 µM (inactive)	> 100 µM (inactive)	> 100 µM (inactive)	> 100 µM (inactive)	> 100 µM (inactive)	> 100 µM (inactive)	> 100 µM (inactive)		> 100 µM (inactive)
